Eight compounds from patent publication US20240228488A1 (TAKEDA PHARMACEUTICAL COMPANY LIMITED, priority 2021, published 2024) can be followed below.

As usually defined, the EC50 is the concentration needed to bring the measured effect to its halfway point.

human activated kallikrein enzyme, sequence (P03952 391-638 limits assumed): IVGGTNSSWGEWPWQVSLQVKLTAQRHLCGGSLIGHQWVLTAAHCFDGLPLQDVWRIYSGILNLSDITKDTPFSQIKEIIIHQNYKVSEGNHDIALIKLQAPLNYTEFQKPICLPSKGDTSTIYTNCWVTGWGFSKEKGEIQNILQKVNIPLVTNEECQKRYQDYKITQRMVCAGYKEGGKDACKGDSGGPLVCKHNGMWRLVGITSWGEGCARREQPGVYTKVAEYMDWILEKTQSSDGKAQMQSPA
human activated kallikrein enzyme, sequence (P03952 20-390 partner limits assumed): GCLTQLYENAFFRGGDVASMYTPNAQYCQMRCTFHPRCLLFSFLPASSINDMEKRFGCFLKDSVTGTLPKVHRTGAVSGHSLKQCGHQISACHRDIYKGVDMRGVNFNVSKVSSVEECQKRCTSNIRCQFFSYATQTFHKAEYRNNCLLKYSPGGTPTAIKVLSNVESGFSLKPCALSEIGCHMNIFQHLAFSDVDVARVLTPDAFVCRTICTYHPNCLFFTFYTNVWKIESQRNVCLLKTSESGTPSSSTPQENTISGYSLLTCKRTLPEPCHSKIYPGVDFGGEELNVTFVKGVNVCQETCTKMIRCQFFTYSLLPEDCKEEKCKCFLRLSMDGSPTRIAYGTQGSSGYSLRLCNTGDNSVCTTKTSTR

The assay concerns the target human activated kallikrein enzyme (Homo sapiens, UniProt P03952). As to the kind of experiment: Plasma kallikrein inhibition, fluorogenic PFR-AMC substrate, 500 pM activated kallikrein format. The assay is classed as biochemical. The note with it: 500 pM activated kallikrein, 300 uM PFR-AMC, 30 min preincubation, 10 min reaction; read-out: Primary Dose Response Assay: Average EC50. The essentials: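 500 pM enz + cpd, 30 min RT preinc; start w/ PFR-AMC 300 uM; 10 min RT; Ex380/Em460. Buffer: Tris 20 mM pH 7.5, EDTA 1 mM, NaCl 150 mM, PEG-400 0.1%, Triton 0.1%. EC50.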
Regarding `Cc1ccnc([C@H]2C[C@@H]2C(=O)Nc2cc(N(CC(=O)O)Cc3cn4cc(C5CC5)cc(N5CC(=O)N(C)C5=O)c4n3)ncn2)n1` [Example 461, N-((6-cyclopropyl-8-(3-methyl-2,4-dioxoimidazolidin-1-yl)imidazo[1,2-a]pyridin-2-yl)methyl)-N-(6-((1S,2S)-2-(4-methylpyrimidin-2-yl)cyclopropane-1-carboxamido)pyrimidin-4-yl)glycine], the EC50 is 1 to 10 nM.

Consider `Cc1ccnc([C@H]2C[C@@H]2C(=O)Nc2cc(N[C@H](C)c3cn4cc(C5CC5)cc(N5CC(=O)N(C)C5=O)c4n3)nc(CO)n2)n1` [Example 469, (1S,2S)-N-(6-(((R)-1-(6-cyclopropyl-8-(3-methyl-2,4-dioxoimidazolidin-1-yl)imidazo[1,2-a]pyridin-2-yl)ethyl)amino)-2-(hydroxymethyl)pyrimidin-4-yl)-2-(4-methylpyrimidin-2-yl)cyclopropane-1-carboxamide], for which the EC50 is < 1 nM.

For `CCc1cc(N2CC(=O)N(C)C2=O)c2nc(CNc3cc(NC(=O)[C@H]4C[C@@H]4c4nccc(C)n4)nc(C)n3)cn2c1` [Example 537, (1S,2S)-N-(6-(((6-ethyl-8-(3-methyl-2,4-dioxoimidazolidin-1-yl)imidazo[1,2-a]pyridin-2-yl)methyl)amino)-2-methylpyrimidin-4-yl)-2-(4-methylpyrimidin-2-yl)cyclopropane-1-carboxamide], the EC50 is < 1 nM.

For `Cc1cc(NC(=O)[C@H]2C[C@@H]2c2nccc(C)n2)nc(N[C@H](C)c2cn3cc(C4CC4)cc(N4CC(=O)N(C)C4=O)c3n2)n1` [Example 440, (1S,2S)-N-(2-(((R)-1-(6-cyclopropyl-8-(3-methyl-2,4-dioxoimidazolidin-1-yl)imidazo[1,2-a]pyridin-2-yl)ethyl)amino)-6-methylpyrimidin-4-yl)-2-(4-methylpyrimidin-2-yl)cyclopropane-1-carboxamide], the EC50 was < 1 nM.

Consider `Cc1ccnc([C@H]2C[C@@H]2C(=O)Nc2cc(N[C@H](C)c3cn4cc(C5(F)CC5)cc(N5CC(=O)N(C)C5=O)c4n3)nc(C)n2)n1` [Example 436, (1S,2S)-N-(6-(((R)-1-(6-(1-fluorocyclopropyl)-8-(3-methyl-2,4-dioxoimidazolidin-1-yl)imidazo[1,2-a]pyridin-2-yl)ethyl)amino)-2-methylpyrimidin-4-yl)-2-(4-methylpyrimidin-2-yl)cyclopropane-1-carboxamide], for which the EC50 was < 1 nM.

For the compound `Cc1ccnc([C@H]2C[C@@H]2C(=O)Nc2nccc3nc(Cc4cn5cc(C6CC6)cc(N6CC(=O)N(C)C6=O)c5n4)oc23)n1` [Example 629, (1S,2S)—N-(2-((6-cyclopropyl-8-(3-methyl-2,4-dioxoimidazolidin-1-yl)imidazo[1,2-a]pyridin-2-yl)methyl)oxazolo[5,4-c]pyridin-4-yl)-2-(4-methylpyrimidin-2-yl)cyclopropane-1-carboxamide], the EC50 is < 1 nM.

`Cc1ccnc([C@H]2C[C@@H]2C(=O)Nc2nccc3nn(Cc4cn5cc(C6CC6)cc(N6CC(=O)N(C)C6=O)c5n4)cc23)n1` (racemic) [Example 576, rac-(1S*,2S*)—N-(2-((6-cyclopropyl-8-(3-methyl-2,4-dioxoimidazolidin-1-yl)imidazo[1,2-a]pyridin-2-yl)methyl)-2H-pyrazolo[4,3-c]pyridin-4-yl)-2-(4-methylpyrimidin-2-yl)cyclopropane-1-carboxamide]: the concentration giving a half-maximal response (EC50) was < 1 nM.

Take `O=C(Nc1cc(NCc2cn3cc(C4CC4)cc(N4CCCC4=O)c3n2)ncn1)[C@H]1C[C@@H]1c1cccc(Cl)c1` (racemic) [Example 58, rac-(1S*,2S*)-2-(3-chlorophenyl)-N-(6-(((6-cyclopropyl-8-(2-oxopyrrolidin-1-yl)imidazo[1,2-α]pyridin-2-yl)methyl)amino)pyrimidin-4-yl)cyclopropane-1-carboxamide]: the EC50 was 1 to 10 nM.
